# Patent publication US8143411B2, “Substituted 6-phenylnicotinic acids and their use” (Bayer Animal Health GmbH, priority 2007, dated 2012)
# Where a name gives a salt, the structure may show the parent alone.
# Biological target: T1, human PPARα receptor (Homo sapiens, UniProt Q07869)
# T1 construct: expressed in transfected cells
# T1 sequence (Q07869 167-468): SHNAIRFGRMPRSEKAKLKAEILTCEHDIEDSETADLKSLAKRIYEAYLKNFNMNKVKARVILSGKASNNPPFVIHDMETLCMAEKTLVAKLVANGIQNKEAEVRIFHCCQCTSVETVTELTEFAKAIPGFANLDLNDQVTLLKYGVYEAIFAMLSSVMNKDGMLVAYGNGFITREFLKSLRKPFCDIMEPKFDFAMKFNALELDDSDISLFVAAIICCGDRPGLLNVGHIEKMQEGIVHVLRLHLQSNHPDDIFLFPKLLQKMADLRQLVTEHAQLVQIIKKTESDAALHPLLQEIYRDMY
# Test: Cellular transactivation assay (GAL4-PPARα chimera, luciferase reporter)
# Type: cell-based
# Conditions: CHO cells stably expressing GAL4-PPARα chimera (human PPARα ligand binding domain) and luciferase reporter; 6 h stimulation
# Excerpt: A cellular assay is used to identify activators of the peroxisome proliferator-activated receptor alpha (PPAR-alpha).
# Since mammalian cells contain different endogenous nuclear receptors which may complicate an unambiguous interpretation of the results, an established chimera system is used in which the ligand binding domain of the human PPARα receptor is fused to the DNA binding domain of the yeast transcription factor GAL4. The resulting GAL4-PPARα chimera is co-transfected and stably expressed in CHO cells having a reporter construct.
# The GAL4-PPARα expression construct contains the ligand binding domain of PPARα (amino acids 167-468) which is PCR-amplified and cloned into the vector pcDNA3.1. This vector already contains the GAL4 DNA binding domain (amino acids 1-147) of the vector pFC2-dbd (Stratagene). The reporter construct, which contains five copies of the GAL4 binding site upstream of a thymidine kinase promoter, expresses firefly luciferase (Photinus pyralis) following activation and binding of GAL4-PPARα.
# The day before the test, CHO (Chinese hamster ovary) cells which stably express the GAL4-PPARα chimera described above and the luciferase reporter gene construct are plated in medium (Optimem, GIBCO), 2% activated carbon-purified fetal calf serum (Hyclone), 1.35 mM sodium pyruvate (GIBCO), 0.2% sodium bicarbonate (GIBCO) with 1×10^3 cells in 96-well microtiter plates and kept in a cell incubator (96% atmospheric humidity, 5% v/v CO2, 37° C.). On the day of the test, the substances to be tested are taken up in the medium mentioned above but without added calf serum) and added to the cells. After a stimulation period of 6 h, the luciferase activity is measured using a video camera. The relative light units measured give, as a function of the substance concentration, a sigmoidal stimulation curve. The EC50 values are calculated using the computer programme GraphPad PRISM (Version 3.02).
row,Compound,EC50
1,"CCOc1nc(-c2ccc(C)c(F)c2)cc(C(F)(F)F)c1C(=O)O [Example 34, 2-Ethoxy-6-(3-fluoro-4-methylphenyl)-4-(trifluoromethyl)nicotinic acid]",95 nM
2,"CC(C)(C)CCOc1nc(-c2ccc(Br)cc2)cc(C(F)(F)F)c1C(=O)O [Example 67, 6-(4-Bromophenyl)-2-(3,3-dimethylbutoxy)-4-(trifluoromethyl)nicotinic acid]",182 nM
3,"CC(C)CCOc1nc(-c2cc(F)cc(F)c2)cc(C(F)(F)F)c1C(=O)O [Example 49, 6-(3,5-Difluorophenyl)-2-(3-methylbutoxy)-4-(trifluoromethyl)nicotinic acid]",42 nM
4,"CCOc1cc(-c2ccc(Cl)cc2)nc(C(C)C)c1C(=O)O [Example 71, 6-(4-Chlorophenyl)-4-ethoxy-2-(1-methylethyl)nicotinic acid sodium salt]",86 nM
5,"Cc1ccc(-c2cc(C(F)(F)F)c(C(=O)O)c(OC(C)C3CCCCC3)n2)cc1F (centres unmarked) [Example 42, 2-(1-Cyclohexylethoxy)-6-(3-fluoro-4-methylphenyl)-4-(trifluoromethyl)nicotinic acid]",120 nM
6,"COCCN(C)c1nc(-c2ccc(C)c(F)c2)cc(C(F)(F)F)c1C(=O)O [Example 47, 6-(3-Fluoro-4-methylphenyl)-2-[(2-methoxyethyl)(methyl)amino]-4-(trifluoromethyl)nicotinic acid hydrochloride]",180 nM
7,"Cc1ccc(-c2cc(C(F)(F)F)c(C(=O)O)c(NC(C)C)n2)cc1F [Example 7, 6-(3-Fluoro-4-methylphenyl)-2-(isopropylamino)-4-(trifluoromethyl)nicotinic acid]",83 nM

# The remaining lines, values ahead:
row,EC50,Compound
1,24 nM,"CCc1nc(-c2ccc(Cl)cc2)cc(CC(C)C)c1C(=O)O [Example 51, 6-(4-Chlorophenyl)-2-ethyl-4-isobutyl-nicotinic acid]"
2,13 nM,"CC(C)Cc1nc(-c2ccc(Cl)cc2)cc(C(F)(F)F)c1C(=O)O [Example 77, 6-(4-Chlorophenyl)-2-isobutyl-4-(trifluoromethyl)nicotinic acid sodium salt]"
3,100 nM,"O=C(O)c1c(C(F)(F)F)cc(-c2ccc(Cl)cc2)nc1NCC1CC1 [Example 22, 6-(4-Chlorophenyl)-2-[(cyclopropylmethyl)amino]-4-(trifluoromethyl)nicotinic acid]"
4,11 nM,"Cc1ccc(-c2cc(C(F)(F)F)c(C(=O)O)c(CC(C)C)n2)cc1F [Example 2, 6-(3-Fluoro-4-methylphenyl)-2-isobutyl-4-(trifluoromethyl)nicotinic acid sodium salt]"
